Test results as given in ChEMBL document CHEMBL1151112, “A rapid and sensitive bioassay involving cultured rat glioma cells to screen for substances capable of elevating intracellular cyclic AMP concentration” (J Nat Prod, 1988).
Active and inactive are the calls of the source. The calls are words filed in the database; no cut-off is given here.

Assays:
[1] = Induction of morphological transformation of rat ASK cells into astrocytes after 1 hr by light microscopy; assay type: functional; settings: read-out: ED50 (the source's name)
ASK = assay: Induction of morphological transformation of rat ASK cells into astrocytes at 100 ug/ml after 1 hr by light microscopy; assay type: functional, cell-based
[2] = Induction of morphological transformation of rat ASK cells into astrocytes at 0.5 uM after 1 hr by light microscopy; assay type: functional
[3] = Induction of morphological transformation of rat ASK cells into astrocytes at 0.10 uM after 1 hr by light microscopy; assay type: functional
[4] = Induction of morphological transformation of rat ASK cells into astrocytes at 0.004 uM after 1 hr by light microscopy; assay type: functional
[5] = Induction of morphological transformation of rat ASK cells into astrocytes at 0.02 uM after 1 hr by light microscopy; assay type: functional
[6] = Induction of morphological transformation of rat ASK cells into astrocytes at 2.5 uM after 1 hr by light microscopy; assay type: functional
[7] = Induction of morphological transformation of rat ASK cells into astrocytes at 50 uM after 1 hr by light microscopy in presence of colchicine; assay type: functional
[8] = Induction of morphological transformation of rat ASK cells into astrocytes at 12.5 uM after 1 hr by light microscopy in presence of fetal calf serum; assay type: functional
[9] = Induction of morphological transformation of rat ASK cells into astrocytes at 12.5 uM after 1 hr by light microscopy in presence of colchicine; assay type: functional
[10] = Induction of morphological transformation of rat ASK cells into astrocytes at 100 uM after 1 hr by light microscopy in presence of fetal calf serum; assay type: functional
[11] = Cytotoxicity against rat ASK cells at 150 uM; assay type: cell-based
[12] = Induction of morphological transformation of rat ASK cells into astrocytes at 6.2 uM after 1 hr by light microscopy in presence of colchicine; assay type: functional
[13] = Induction of morphological transformation of rat ASK cells into astrocytes at 25 uM after 1 hr by light microscopy in presence of colchicine; assay type: functional
[14] = Induction of morphological transformation of rat ASK cells into astrocytes at 50 uM after 1 hr by light microscopy in presence of fetal calf serum; assay type: functional
[15] = Induction of morphological transformation of rat ASK cells into astrocytes at 6.2 uM after 1 hr by light microscopy in presence of fetal calf serum; assay type: functional
[16] = Induction of morphological transformation of rat ASK cells into astrocytes at 100 uM after 1 hr by light microscopy in absence of fetal calf serum; assay type: functional
[17] = Induction of morphological transformation of rat ASK cells into astrocytes at 100 uM after 1 hr by light microscopy in presence of colchicine; assay type: functional
[18] = Induction of morphological transformation of rat ASK cells into astrocytes at 25 uM after 1 hr by light microscopy in absence of fetal calf serum; assay type: functional
[19] = Induction of morphological transformation of rat ASK cells into astrocytes at 50 uM after 1 hr by light microscopy in absence of fetal calf serum; assay type: functional
[20] = Induction of morphological transformation of rat ASK cells into astrocytes at 150 uM after 1 hr by light microscopy in presence of fetal calf serum; assay type: functional
[21] = Induction of cAMP production in rat ASK cells assessed per 10^6 cells at 50 uM after 1 hr by radioimmunoassay; assay type: functional
[22] = Induction of morphological transformation of rat ASK cells into astrocytes at 25 uM after 1 hr by light microscopy in presence of fetal calf serum; assay type: functional
[23] = Induction of morphological transformation of rat ASK cells into astrocytes at 12.5 uM after 1 hr by light microscopy in absence of fetal calf serum; assay type: functional
[24] = Induction of morphological transformation of rat ASK cells into astrocytes at 6.2 uM after 1 hr by light microscopy in absence of fetal calf serum; assay type: functional

SMILES | EC50 [1] [µM] | Activity (ASK) | other results
CC1=C(/C=C/C(C)=C/C=C/C(C)=C/C=C/C(=O)O)C(C)(C)CCC1 | > 25 | – | –
COC(C)C1=C(/C=C/C(C)=C/C=C/C(C)=C/C(=O)O)C(C)(C)CC1 (configuration not stated) | < 10 | – | –
CC(/C=C/C12OC1(C)CCCC2(C)C)=C\C=C\C(C)=C\C(=O)O (configuration not stated) | > 25 | – | –
C=C[C@@]1(C)CC(=O)[C@@]23OS(=O)O[C@H]4CCC(C)(C)[C@H]([C@H](O)[C@H](OC(C)=O)[C@@]2(C)O1)[C@]43C (some centres not stated) | 3.12 | – | –
C=C[C@@]1(C)CC(=O)[C@]2(O)[C@@]3(C)[C@@H](O)CCC(C)(C)[C@@H]3[C@H](O)[C@H](O)[C@@]2(C)O1 | 3.86 | – | –
C=C[C@@]1(C)CC(O)[C@]2(O)[C@@]3(C)[C@@H](O)CCC(C)(C)[C@@H]3[C@H](O)[C@H](OC(C)=O)[C@@]2(C)O1 (some centres not stated) | 6.53 | – | –
CC1=C(CC/C(C)=C/C=C/C(C)=C/C(=O)O)C(C)(C)CCC1 | < 10 | – | –
CC(=O)C1=C(/C=C/C(C)=C/C=C/C(C)=C/C(=O)O)C(C)(C)CC1 | > 25 | – | –
CC1=C(/C=C/C(C)C/C=C/C(C)=C/C(=O)O)C(C)(C)CCC1 (configuration not stated) | 10 | – | –
C=C[C@@]1(C)CC(=O)[C@@H]2[C@@]3(C)CCCC(C)(C)[C@@H]3[C@H](O)[C@H](OC(C)=O)[C@@]2(C)O1 | > 100 | – | –
CC(/C=C/C1C(C)CCCC1(C)C)=C\C=C\C(C)=C\C(=O)O (configuration not stated) | < 10 | – | –
CC(C)=CCC[C@](C)(O)[C@H]1CC[C@]2(C)[C@@H]1[C@H](O)C[C@@H]1[C@@]3(C)CC[C@H](O)C(C)(C)[C@@H]3[C@@H](O[C@@H]3O[C@H](CO)[C@@H](O)[C@H](O)[C@H]3O[C@@H]3O[C@@H](C)[C@H](O)[C@@H](O)[C@H]3O)C[C@]12C | – | inactive | –
CC(C)=CCC[C@](C)(O[C@@H]1O[C@H](CO)[C@@H](O)[C@H](O)[C@H]1O)[C@H]1CC[C@]2(C)[C@@H]1[C@H](O)C[C@@H]1[C@@]3(C)CC[C@H](O)C(C)(C)[C@@H]3[C@@H](O[C@@H]3O[C@H](CO)[C@@H](O)[C@H](O)[C@H]3O)C[C@]12C | – | inactive | –
CC(C)=CCC[C@](C)(O[C@@H]1O[C@H](CO)[C@@H](O)[C@H](O)[C@H]1O)[C@H]1CC[C@]2(C)[C@@H]1[C@H](O)C[C@@H]1[C@@]3(C)CC[C@H](O)C(C)(C)[C@@H]3[C@@H](O[C@@H]3O[C@H](CO)[C@@H](O)[C@H](O)[C@H]3O[C@@H]3O[C@@H](C)[C@H](O)[C@@H](O)[C@H]3O)C[C@]12C | – | inactive | –
CC(C)=CCC[C@](C)(O[C@@H]1O[C@H](CO)[C@@H](O)[C@H](O)[C@H]1O)[C@H]1CC[C@]2(C)[C@@H]1[C@H](O)C[C@@H]1[C@@]3(C)CC[C@H](O[C@@H]4O[C@H](CO)[C@@H](O)[C@H](O)[C@H]4O[C@@H]4O[C@H](CO)[C@@H](O)[C@H](O)[C@H]4O)C(C)(C)[C@@H]3CC[C@]12C | – | inactive | –
CC(C)=CCC[C@](C)(O[C@@H]1O[C@H](CO[C@@H]2OC[C@@H](O)[C@H](O)[C@H]2O)[C@@H](O)[C@H](O)[C@H]1O)[C@H]1CC[C@]2(C)[C@@H]1[C@H](O)C[C@@H]1[C@@]3(C)CC[C@H](O[C@@H]4O[C@H](CO)[C@@H](O)[C@H](O)[C@H]4O[C@@H]4O[C@H](CO)[C@@H](O)[C@H](O)[C@H]4O)C(C)(C)[C@@H]3CC[C@]12C | – | inactive | –
CC(C)=CCC[C@](C)(O[C@@H]1O[C@H](CO[C@@H]2OC[C@H](O)[C@H](O)[C@H]2O)[C@@H](O)[C@H](O)[C@H]1O)[C@H]1CC[C@]2(C)[C@@H]1[C@H](O)C[C@@H]1[C@@]3(C)CC[C@H](O[C@@H]4O[C@H](CO)[C@@H](O)[C@H](O)[C@H]4O[C@@H]4O[C@H](CO)[C@@H](O)[C@H](O)[C@H]4O)C(C)(C)[C@@H]3CC[C@]12C | – | inactive | –
CC(C)=CCC[C@](C)(O[C@@H]1O[C@H](CO[C@@H]2O[C@@H](CO)[C@H](O)[C@H]2O)[C@@H](O)[C@H](O)[C@H]1O)[C@H]1CC[C@]2(C)[C@@H]1[C@H](O)C[C@@H]1[C@@]3(C)CC[C@H](O[C@@H]4O[C@H](CO)[C@@H](O)[C@H](O)[C@H]4O[C@@H]4O[C@H](CO)[C@@H](O)[C@H](O)[C@H]4O)C(C)(C)[C@@H]3CC[C@]12C | – | inactive | –
CC(C)=CCC[C@](C)(O[C@@H]1O[C@H](CO[C@@H]2O[C@H](CO)[C@@H](O)[C@H](O)[C@H]2O)[C@@H](O)[C@H](O)[C@H]1O)[C@H]1CC[C@]2(C)[C@@H]1[C@H](O)C[C@@H]1[C@@]3(C)CC[C@H](O[C@@H]4O[C@H](CO)[C@@H](O)[C@H](O)[C@H]4O[C@@H]4O[C@H](CO)[C@@H](O)[C@H](O)[C@H]4O)C(C)(C)[C@@H]3CC[C@]12C | – | inactive | –
CC1(C)CC[C@]2(C(=O)O[C@@H]3O[C@H](CO)[C@@H](O)[C@H](O)[C@H]3O)CC[C@]3(C)C(=CC[C@@H]4[C@@]5(C)CC[C@H](O[C@@H]6O[C@H](C(=O)O)[C@@H](O)[C@H](O)[C@H]6O[C@@H]6O[C@H](CO)[C@@H](O)[C@H](O)[C@H]6O)C(C)(C)[C@@H]5CC[C@]43C)[C@@H]2C1 | – | inactive | –
C=C[C@@]1(C)CC(=O)[C@]2(O)[C@@]3(C)[C@@H](O)CCC(C)(C)[C@@H]3[C@H](O)[C@H](OC(C)=O)[C@@]2(C)O1 [COLFORSIN] | 0.07 | – | Activity [2]: 100%; Activity [3]: 50%; Activity [4]: 0%; Activity [5]: 15%; Activity [6]: 100%
CCOC(=O)/C=C(C)/C=C/C=C(C)/C=C/c1c(C)cc(OC)c(C)c1C [ETRETINATE] | > 25 | – | –
CC(=O)OC/C=C(C)/C=C/C=C(C)/C=C/C1=C(C)CCCC1(C)C [GILRETINOL ACETATE] | 10 | – | –
CC1=C(/C=C/C(C)=C/C=C/C(C)=C\C(=O)O)C(C)(C)CCC1 [ISOTRETINOIN] | < 10 | – | –
CCNC(=O)/C=C(C)/C=C/C=C(C)/C=C/c1c(C)cc(OC)c(C)c1C [MOTRETINIDE] | > 25 | – | –
CC1=C(/C=C/C(C)=C/C=C/C(C)=C/C=O)C(C)(C)CCC1 [RETINAL] | < 10 | – | –
COC(=O)/C=C(C)/C=C/C=C(C)/C=C/C1=C(C)CCCC1(C)C [RETINOIC ACID METHYL ESTER] | > 25 | – | –
CC1=C(/C=C/C(C)=C/C=C/C(C)=C/CO)C(C)(C)CCC1 [RETINOL] | > 25 | – | –
CC1=C(/C=C/C(C)=C/C=C/C(C)=C/C(=O)O)C(C)(C)CCC1 [TRETINOIN] | 10 | – | Activity [7]: 30%; Activity [8]: 10%; Activity [9]: 0%; Activity [10]: 40%; Activity [11]: Toxic; Activity [12]: 0%; Activity [13]: 15%; Activity [14]: 30%; Activity [15]: 0%; Activity [16]: 100%; Activity [17]: 50%; Activity [18]: 80%; Activity [19]: 95%; Activity [20]: 65%; Activity [21]: 20 pmol; Activity [22]: 20%; Activity [23]: 70%; Activity [24]: 50%
